Measurements reported in US20240174603A1 (Rappta Therapeutics Oy, priority 2021, published 2024).

These compounds were tested on LNCaP cells (assay: LNCaP cell viability assay (MTS)). Conditions: Homo sapiens, LNCaP, 48 h, LNCaP cell line.
Assay type: cell-based
How it was run: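 GI50 derived by nonlinear four-parameter curve fitting (bottom fixed at zero) of MTS viability data. Prostate LNCaP cells seeded at 5000/well were given compound doses from 1 to 80 µM one day after plating and assayed after 48 h of exposure.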

GI50 [µM]	SMILES
40.3	O=S(=O)(NC[C@H](c1ccc(F)cc1)N1CCNCC1)c1ccc(OC(F)(F)F)cc1 [Compound 265, (S)—N-(2-(4-fluorophenyl)-2-(piperazin-1-yl)ethyl)-4-(trifluoromethoxy)benzenesulfonamide]
61.1	COC(=O)C[C@@H](Cc1ccccc1)NS(=O)(=O)c1ccc(OC(F)(F)F)cc1 [Compound 6, Methyl (R)-4-phenyl-3-((4-(trifluoromethoxy)phenyl)sulfonamido)butanoate]
24.6	O=S(=O)(NCCNS(=O)(=O)c1cc(Br)ccc1Br)c1ccc(OC(F)(F)F)cc1 [Compound 3, 2,5-dibromo-N-(2-((4-(trifluoromethoxy)phenyl)sulfonamido)ethyl)benzenesulfonamide]
48	O=S(=O)(NCCCOCCOCc1ccccc1)c1ccc(OC(F)(F)F)cc1 [Compound 89, N-(3-(2-(benzyloxy)ethoxy)propyl)-4-(trifluoromethoxy)benzenesulfonamide]
58.3	O=S(=O)(NCc1ccccc1S(=O)(=O)N1CCCCC1)c1ccc(OC(F)(F)F)cc1 [Compound 2, N-(2-(piperidin-1-ylsulfonyl)benzyl)-4-(trifluoromethoxy)benzenesulfonamide]
10.5	CN(C)CC(NS(=O)(=O)c1ccc(Oc2ccccc2)cc1)c1ccc(Cl)c(Cl)c1 (stereo not shown) [Compound 138, N-(1-(3,4-dichlorophenyl)-2-(dimethylamino)ethyl)-4-phenoxybenzenesulfonamide]
24.7	CN(C)CC(NS(=O)(=O)c1ccc(OC(F)(F)F)cc1)c1ccc(Cl)c(F)c1 (stereo not shown) [Compound 168, N-(1-(4-chloro-3-fluorophenyl)-2-(dimethylamino)ethyl)-4-(trifluoromethoxy)benzenesulfonamide]
5.47	CC(C)CC(CCO)NS(=O)(=O)c1ccc(OC(F)(F)F)cc1 (stereo not shown) [Compound 10, N-(1-hydroxy-5-methylhexan-3-yl)-4-(trifluoromethoxy)benzenesulfonamide]
75.6	CN(C)CC(NS(=O)(=O)c1cc(F)cc(F)c1)c1ccc(Cl)c(Cl)c1 (stereo not shown) [Compound 134, N-(1-(3,4-dichlorophenyl)-2-(dimethylamino)ethyl)-3,5-difluorobenzenesulfonamide]
23.8	CN(C)C[C@@H](Cc1ccc(Cl)c(Cl)c1)NS(=O)(=O)c1ccc(OC(F)(F)F)cc1 [Compound 246, (R)—N-(1-(3,4-dichlorophenyl)-3-(dimethylamino)propan-2-yl)-4-(trifluoromethoxy)benzenesulfonamide]
61	O=S(=O)(NCCN1c2ccccc2NS1(=O)=O)c1ccc(OC(F)(F)F)cc1 [Compound 100, N-(2-(2,2-dioxidobenzo[c] [1,2,5]thiadiazol-1(3H)-yl)ethyl)-4-(trifluoromethoxy)benzenesulfonamide]
65	O=[N+]([O-])c1ccc(S(=O)(=O)NCCNS(=O)(=O)c2ccc(OC(F)(F)F)cc2)cc1 [Compound 108, 4-nitro-N-(2-((4-(trifluoromethoxy)phenyl)sulfonamido)ethyl)benzenesulfonamide]
9	O=S(=O)(NC(c1cc(Cl)cc(Cl)c1)C1CCCCC1)c1ccc(OC(F)(F)F)cc1 (stereo not shown) [Compound 69, N-(cyclohexyl(3,5-dichlorophenyl)methyl)-4-(trifluoromethoxy)benzenesulfonamide]
57.2	COC(=O)[C@H](Cc1ccc(Cl)c(Cl)c1)NS(=O)(=O)c1ccc(OC(F)(F)F)cc1 [Compound 40, Methyl (S)-3-(3,4-dichlorophenyl)-2-((4-(trifluoromethoxy)phenyl)sulfonamido)propanoate]
49.7	Cn1ccc(S(=O)(=O)NCC(NS(=O)(=O)c2ccc(OC(F)(F)F)cc2)c2ccccc2)c1 (stereo not shown) [Compound 124, 1-methyl-N-(2-phenyl-2-((4-(trifluoromethoxy)phenyl)sulfonamido)ethyl)-1H-pyrrole-3-sulfonamide]
69.9	CN(C)CC(NS(=O)(=O)c1cccc(F)c1)c1ccc(Cl)c(Cl)c1 (stereo not shown) [Compound 129, N-(1-(3,4-dichlorophenyl)-2-(dimethylamino)ethyl)-3-fluorobenzenesulfonamide]
